According to patent publication US20250270615A1, “METHOD FOR DETECTING THE MICROBIAL GROWTH POTENTIAL OF AN ANTISCALANT COMPOSITION IN NATURAL SEAWATER” (ACWA POWER Company, priority 2024, published 2025):

System: autochthonous seawater bacteria
Assay: Bacterial growth potential of antiscalants in natural seawater with an autochthonous bacterial population (flow cytometry)
Type: cell-based
Conditions: 50 mg L^−1 antiscalant, Red Sea water, 30° C. dark, 8 days, one-tail Wilcoxon signed-rank test
Procedure: The natural seawater was serially filtered to remove microbial cells and to set a desired low initial cell concentration for the growth potential assay within approximately 10,000 to 20,000 bacterial cells mL^−1. This seawater was used in the method of the present disclosure.
Natural seawater (1.0 L) was serially filtered through pre-cleaned 0.45 μm pore size and 0.2 μm pore size polyethersulfone filters (Satorius Stedium Minisart). The filters were replaced every 100 mL.
30 mL of the resulting filtered seawater with a bacterial cell concentration of 21,000±1200 cells mL^−1 was added to AOC-free 40 mL borosilicate glass vials with screw caps containing PTFE-lined silicone septa.
Antiscalants from the 8 stock solutions (3 g L^−1) were added to 8 vials to obtain 8 mixtures comprising the antiscalant at a final concentration of 50 mg L^−1.
Vials with no antiscalant addition were included as a control.
The vials were incubated at 30° C. in the dark and bacterial growth was determined by measuring cell concentrations over time using flow cytometry. Each growth potential test was conducted in three independent biological replicates.
Flow cytometry (FCM) was used to measure the bacterial cell concentration in the vials at an interval of 24 h.
To this end, 5.0 μL SYBR Green I (Invitrogen, 100× diluted in 10 mM Tris buffer pH=8.1) were added to a final 0.5 mL vial samples in amber microfuge tubes followed by mixing and incubation for 10 min in the dark at 35° C.
Stained cells were measured with a BD Accuri C6 instrument in fixed 50 μL volume mode with a sample flow rate of 35 μL min^−1. The blue 488 nm laser (50 mW) was used to collect the green fluorescence at FL1=533 30 nm, the red fluorescence FL3>670 nm, as well as intrinsic cell parameters were given by the side scattered (SSH) and forward scattered (FSH) light signals. Electronic gating was used to separate positive microbial stained signals from instrument, and water background noise as described by Prest et al. (2013).
The instrument performance was verified using Spherotech 8-peak validation beads. […]

SMILES	bacterial growth compared to reference without antiscalant
O=P(O)(O)CN(CP(=O)(O)O)CP(=O)(O)O [ATMP, amino trimethylene phosphonic acid]	promoted bacterial growth
O=P(O)(O)CN(CCCCCCN(CP(=O)(O)O)CP(=O)(O)O)CP(=O)(O)O [HDTMP, hexamethylenediamine-tetra(methylenephosphonic acid)]	promoted bacterial growth
CC(O)(P(=O)(O)O)P(=O)(O)O [HEDP, 1-hydroxyethylidene-(1,1-diphosphonic acid)]	did not promote bacterial growth
